Source: ChEMBL document CHEMBL1149017, “Herbicidal effects of geldanamycin and nigericin, antibiotics from Streptomyces hygroscopicus” (J Nat Prod, 1986)
Calls of active or inactive are those of the source. The rule behind the calls is not given here.

Experiments:
[1] = system: Lepidium sativum; assay: Herbicidal activity against Lepidium sativum assessed as inhibition of radicle growth of seed at 3 to 4 ppm after 69 to 75 hrs in dark; type: functional, organism-based
[2] = system: Lepidium sativum; assay: Herbicidal activity against Lepidium sativum assessed as inhibition of radicle growth of seeds at 1 to 2 ppm after 69 to 75 hrs in dark; type: functional; parameters: scale not given: the % may be the effect or the level left
[3] = system: Rattus norvegicus; assay: Acute toxicity in rat at 2500 to 5000 mg/kg, po; type: organism-based; parameters: dose 2500-5000 mg/kg, route oral; details: in vivo
[4] = Toxicity in ip dosed mouse; type: organism-based; details: in vivo
[5] = system: Lepidium sativum; assay: Herbicidal activity against Lepidium sativum assessed as occurrence of browning and tissue necrosis; type: functional, organism-based

Compound	Activity [1]	Activity [2] [%]	Activity [3]	LD50 [4] [mg/kg]	Activity [5]
COC1=C2C[C@@H](C)C[C@H](OC)[C@H](O)[C@@H](C)/C=C(\C)[C@H](OC(N)=O)[C@@H](OC)/C=C\C=C(/C)C(=O)NC(=CC1=O)C2=O [GELDANAMYCIN]	Active	50	Toxic	1	
CO[C@@H]1C[C@@H](C[C@H]2CC[C@H](C)[C@H]([C@@H](C)C(=O)O)O2)O[C@]2(O[C@](C)([C@H]3CC[C@@](C)([C@@H]4O[C@@H]([C@H]5O[C@@](O)(CO)[C@H](C)C[C@@H]5C)C[C@@H]4C)O3)C[C@H]2C)[C@@H]1C [NIGERICIN]	Active	50		10	inactive
